According to US10168342B2, “Lipid probes and uses thereof” (THE SCRIPPS RESEARCH INSTITUTE, priority 2015, dated 2019):

How the values were obtained:
human NUCB1 = target: T1, human NUCB1 (Homo sapiens, UniProt Q02818); assay: In vitro gel-based competition of AEA-DA probe labeling of NUCB1; type: binding; details: for IC50: AEA-DA 5 μM, recombinant NUCB1 0.25 μM doped into HEK293T lysates, percent of maximal competition, read-out: IC50, blockade of AEA-DA probe labeling of NUCB1
T1 construct: made in house; host or cells: Escherichia coli BL21(DE3)
T1 sequence (Q02818 27-461): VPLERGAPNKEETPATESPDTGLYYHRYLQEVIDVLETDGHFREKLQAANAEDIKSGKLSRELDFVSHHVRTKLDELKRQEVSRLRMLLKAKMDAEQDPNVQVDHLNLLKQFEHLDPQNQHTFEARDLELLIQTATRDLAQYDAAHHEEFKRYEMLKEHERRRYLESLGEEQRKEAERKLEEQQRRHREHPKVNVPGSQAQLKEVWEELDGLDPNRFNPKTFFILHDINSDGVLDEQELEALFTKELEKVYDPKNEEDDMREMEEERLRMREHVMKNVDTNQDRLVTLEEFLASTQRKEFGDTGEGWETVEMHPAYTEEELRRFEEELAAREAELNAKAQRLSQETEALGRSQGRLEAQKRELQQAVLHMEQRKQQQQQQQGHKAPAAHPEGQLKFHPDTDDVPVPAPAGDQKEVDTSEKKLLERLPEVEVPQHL
Description: Human NUCB1 lacking the N-terminal signal sequence (M1-A26) was subcloned into pET45b(+) vector (Novagen) using the following PCR primers for amplification: 5′-CATCAATTGTGTGCCCCTGGAGAGAG-3′ and 5′-AGCAAGCTTTACAGATGTTGGGGCACC-3′. Following transformation of Escherichia coli strain BL21(DE3) with hNucb1ΔSSpET45b(+), a single colony was isolated and grown in Terrific Broth containing carbenicillin (100 mg/L) at 37° C. to an OD600 of 0.8. Protein expression was induced with IPTG (1.0 mM) and the cells were incubated at 20° C. with shaking overnight. After centrifugation, cells pellets were resuspended in cold buffer containing HEPES (0.05M), NaCl (0.03 M), imidazole (5.0 mM), DNase (0.1 mg/mL), MgCl2 (1.0 mM), CaCl2 (1.0 mM) and EDTA-free Complete Protease Inhibitor Cocktail and lysed using a microfluidizer. […] The suspension was applied to a column and the retained resin was washed with HEPES buffer containing 500 mM NaCl until the eluent was clean of DNA and protein (A280/260) and then with HEPES buffer containing 10 mM imidazole (5 mL/1 mL resin). Protein was then slowly eluted with HEPES buffer containing 50 mM imidazole in 1.0 mL fractions and the combined fractions containing hNUCB1 were passed through a Sephadex G-25M column to remove imidazole and concentrated in an Amicon centrifugal filter device (Millipore). These conditions produced hNUCB1 at approximately 10 mg/L of culture; however, several lower molecular weight fragments were also present in this preparation. hNUCB1 was further purified by size exclusion chromatography.
Cell lysates (1.0 mg/mL), the indicated lipid probe (2.5 or 5 μM) and, for recombinant NUCB1 competition experiments, purified hNUCB1 (250 nM) and CaCl2 (100 μM) were mixed on ice. DMSO or competitors were then added to the proteome mixture (50 μM) in 96-well plates and each sample was incubated for 15 min at 37° C. The samples were then irradiated with UV light and subjected to previously described click chemistry conditions. As before, each reaction was quenched with 4×SDS loading buffer (17 μL), and proteins were resolved using SDS-PAGE (10% acrylamide gel) and analyzed by in-gel fluorescent scanning on a Hitachi FMBIO-II flatbed fluorescence scanner. NUCB1 competition was quantitatively assessed by measuring the fluorescent intensity of the corresponding gel band using ImageJ 1.48v and normalizing this value by a non-competed gel band to control for loading differences.
Metabolite data are shown as mean±SEM (n=3-5/group). Differences between two groups were determined using Student's t test (unpaired, two-tailed) and significance was denoted for P values<0.05.

[1] = test system: PGE2 and TXB2 production in PMA-stimulated A549 cells; assay: Prostaglandin production in A549 cells; type: cell-based, human; details: 10 μM, 30 min pre-treatment, then PMA
Description: The old media was removed from each plate and cells were washed with DPBS (2×3 mL) before adding freshly prepared media solutions containing vehicle or compound (3 mL/plate). After incubating for 30 min at 37° C., cells were then stimulated with PMA (10 nM) for 8 h. The media from the cells was then transferred to glass vials containing MS internal standards [PGE2-d9 (10 pmol), PGD2-d9 (10 pmol) and TXB2-d4 (10 pmol)], centrifuged (1,500×g, 5 min) to remove detached cells and then loaded onto preequilibrated reversed phase SPE cartridges (Phenomenex, Strata-X 33 μm, 60 mg/3 mL). After washing cartridges with 5% MeOH/H2O (3 mL), analytes were eluted with MeOH (1.0 mL) and the eluent was concentrated under a stream of N2. Concentrated samples were stored at −80° C. until the day of analysis when they were reconstituted in Mobile Phase A [100 μL, 30% CH3CN in H2O (0.1% AcOH)]. Media extracts were analyzed by LC/MS/MS with LC separation performed on a Kinetex reversed phase C18 column (50×4.6 mm, 2.6 μM particle size, 100Å). Mobile phase gradients were identical to those described above for prostamide analysis and the composition Mobile phases A and B differed only by lacking NH4OAc (5 mM). The following MS parameters were used to measure the indicated metabolites by MRM (precursor ion, product ion, collision energy, polarity): PGE2 (351, 271, 12, negative), PGE2-d9 (360, 280, 12, negative), TXB2 (369, 169, 6, negative), TXB2-d4 (373, 173, 6, negative). PGE2 and TXB2 levels were quantified by determining peak areas in relation to their deuterated internal standard.

Compound	competition of AEA-DA probe labeling of recombinant NUCB1 by lipids (human NUCB1; AEA-DA 5.0 μM, lipids 20×, NUCB1-transfected HEK293T lysates)	PGE2 synthesis from endogenous AA [1]	TXB2 synthesis from endogenous AA [1]	IC50 (human NUCB1) [µM]
CCCCC/C=C\C/C=C\C/C=C\C/C=C\CCCC(=O)NCCO [AEA, anandamide, reference compound]	blocked			
O=C(/C=C/c1cccnc1)NCCCCC1CCN(C(=O)c2ccccc2)CC1 [FK-866, reference compound]		no effect	complete suppression	
CN1CCN(C(=O)c2c(-c3ccccc3)c3cc([N+](=O)[O-])ccc3n2C)CC1 [KML110, (1-Methyl-5-nitro-3-phenyl-1H-indol-2-yl)(4-methylpiperazin-1-yl)methanone]		suppress	suppress	9.6
CN1CCN(C(=O)c2[nH]c3ccc([N+](=O)[O-])cc3c2-c2ccccc2)CC1 [MJN228, (4-Methylpiperazin-1-yl)(5-nitro-3-phenyl-1H-indol-2-yl)methanone]		suppress	suppress	3.3
